Experimental data: ChEMBL document CHEMBL5131477, “Design, synthesis and biological evaluation of 1,3,4-triazole-3-acetamide derivatives as potent neuraminidase inhibitors” (Bioorg Med Chem Lett, 2022)

Assay: Inhibition of Influenza A virus H5N1 Neuraminidase

Compound	IC50 [µM]
COc1ccc(C(=O)NNC(=O)CSc2nnc(-c3ccco3)[nH]2)cc1	12.2
CCc1ccc(NC(=O)CSc2nnc(-c3ccco3)[nH]2)cc1	0.11
COc1ccc(C)cc1NC(=O)CSc1nnc(-c2ccco2)[nH]1	28.5
COc1cc(F)ccc1NC(=O)CSc1nnc(-c2ccco2)[nH]1	1.8
COc1ccc(OC)c(NC(=O)CSc2nnc(-c3ccco3)[nH]2)c1	55.3
COc1cccc(NC(=O)CSc2nnc(-c3ccco3)[nH]2)c1	0.24
COc1cccc(CCNC(=O)CSc2nnc(-c3ccco3)[nH]2)c1	9.04
O=C(CSc1nnc(-c2ccco2)[nH]1)NCCc1cccc(F)c1	8.06
COc1ccc(NC(=O)CSc2nnc(-c3ccco3)[nH]2)cc1OC	1.43
O=C(CSc1nnc(-c2ccco2)[nH]1)NCCc1ccc2c(c1)OCO2	1.67
O=C(CSc1nnc(-c2ccco2)[nH]1)Nc1cccc(Cl)c1	4.33
CCC(CC)O[C@@H]1C=C(C(=O)O)C[C@H](N)[C@H]1NC(C)=O [OSELTAMIVIR CARBOXYLATE]	0.1
